{"source": "ChEMBL document CHEMBL4390652", "about": "“Design, biological evaluation and X-ray crystallography of nanomolar multifunctional ligands targeting simultaneously acetylcholinesterase and glycogen synthase kinase-3” (Eur J Med Chem, 2019)", "key": {"[1]": {"molecular_target": "Cholinesterase (Homo sapiens, UniProt P06276)", "sequence (P06276 whole entry)": "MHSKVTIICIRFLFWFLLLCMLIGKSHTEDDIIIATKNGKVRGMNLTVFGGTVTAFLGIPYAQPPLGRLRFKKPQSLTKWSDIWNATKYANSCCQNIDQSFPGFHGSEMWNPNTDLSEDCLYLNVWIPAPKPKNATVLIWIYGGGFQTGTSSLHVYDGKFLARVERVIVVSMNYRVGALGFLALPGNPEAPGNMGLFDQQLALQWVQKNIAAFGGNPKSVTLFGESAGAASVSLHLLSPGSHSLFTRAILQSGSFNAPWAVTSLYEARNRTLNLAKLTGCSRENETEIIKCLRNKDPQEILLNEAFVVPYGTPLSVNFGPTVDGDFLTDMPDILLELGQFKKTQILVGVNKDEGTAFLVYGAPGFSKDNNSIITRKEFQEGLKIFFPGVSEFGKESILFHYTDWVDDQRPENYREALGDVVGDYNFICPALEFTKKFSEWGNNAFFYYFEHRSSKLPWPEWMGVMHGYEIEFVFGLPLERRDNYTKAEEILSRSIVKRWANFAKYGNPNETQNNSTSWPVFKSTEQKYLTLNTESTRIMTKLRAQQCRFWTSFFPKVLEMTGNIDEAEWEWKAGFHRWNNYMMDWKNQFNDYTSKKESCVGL", "assay": "Inhibition of human serum BChE using BTCh as substrate preincubated for 20 mins followed by substrate addition and measured for 3 mins by Ellman's method"}, "[2]": {"molecular_target": "Activin receptor type-1 (Homo sapiens) (UniProt Q04771)", "assay": "Binding affinity to wild-type human ACVR1 (C188 to C509 residues) expressed in bacterial expression system assessed as residual binding level at 10 uM by Kinomescan method relative to control"}, "[3]": {"molecular_target": "RAC-alpha serine/threonine-protein kinase (Homo sapiens) (UniProt P31749)", "assay": "Binding affinity to wild-type human partial length AKT1 expressed in bacterial expression system assessed as residual binding level at 10 uM by Kinomescan method relative to control"}, "[4]": {"molecular_target": "Aurora kinase B (Homo sapiens) (UniProt Q96GD4)", "assay": "Binding affinity to wild-type human partial length AURKB (D25 to A303 residues) expressed in mammalian expression system assessed as residual binding level at 10 uM by Kinomescan method relative to control"}, "[5]": {"molecular_target": "Aurora kinase C (Homo sapiens) (UniProt Q9UQB9)", "sequence (Q9UQB9 whole entry, the tested form may be a part)": "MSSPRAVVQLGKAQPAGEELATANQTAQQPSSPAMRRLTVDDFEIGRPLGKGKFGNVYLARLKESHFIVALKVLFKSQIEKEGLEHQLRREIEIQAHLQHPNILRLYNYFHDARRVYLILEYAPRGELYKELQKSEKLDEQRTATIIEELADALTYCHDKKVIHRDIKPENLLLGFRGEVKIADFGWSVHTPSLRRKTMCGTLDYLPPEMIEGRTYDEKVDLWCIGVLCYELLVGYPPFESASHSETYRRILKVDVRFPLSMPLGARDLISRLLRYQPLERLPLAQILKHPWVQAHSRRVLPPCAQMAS", "assay": "Binding affinity to wild-type human full length AURKC (M1 to S275 residues) expressed in bacterial expression system assessed as residual binding level at 10 uM by Kinomescan method relative to control"}, "[6]": {"system": "Serine/threonine-protein kinase B-raf (Homo sapiens), P15056 [V600E]", "assay": "Binding affinity to human partial length BRAF V600E mutant (S429 to E741 residues) expressed in mammalian expression system assessed as residual binding level at 10 uM by Kinomescan method relative to control"}, "[7]": {"molecular_target": "Dual specificity protein kinase CLK3 (Homo sapiens) (UniProt P49761)", "sequence (P49761 whole entry, looked up, the tested form may be a part)": "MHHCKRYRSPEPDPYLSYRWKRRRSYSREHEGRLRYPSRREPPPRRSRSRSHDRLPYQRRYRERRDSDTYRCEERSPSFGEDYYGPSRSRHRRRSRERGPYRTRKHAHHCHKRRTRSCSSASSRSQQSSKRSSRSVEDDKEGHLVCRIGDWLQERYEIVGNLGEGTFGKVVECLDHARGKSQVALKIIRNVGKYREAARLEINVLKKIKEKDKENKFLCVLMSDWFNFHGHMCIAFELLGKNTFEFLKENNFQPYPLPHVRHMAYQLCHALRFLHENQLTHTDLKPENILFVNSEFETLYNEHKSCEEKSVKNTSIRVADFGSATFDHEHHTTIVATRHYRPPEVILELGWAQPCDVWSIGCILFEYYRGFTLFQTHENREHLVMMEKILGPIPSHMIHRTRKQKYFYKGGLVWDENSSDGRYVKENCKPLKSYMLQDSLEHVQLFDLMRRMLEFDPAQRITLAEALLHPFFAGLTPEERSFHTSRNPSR", "assay": "Binding affinity to wild-type human full length CLK3 (M1 to R490 residues) expressed in bacterial expression system assessed as residual binding level at 10 uM by Kinomescan method relative to control"}, "[8]": {"molecular_target": "Epithelial discoidin domain-containing receptor 1 (Homo sapiens) (UniProt Q08345)", "assay": "Binding affinity to wild-type human partial length DDR1 (R565 to V876 residues) expressed in bacterial expression system assessed as residual binding level at 10 uM by Kinomescan method relative to control"}, "[9]": {"molecular_target": "Discoidin domain-containing receptor 2 (Homo sapiens) (UniProt Q16832)", "assay": "Binding affinity to wild-type human partial length DDR2 (V555 to E855 residues) expressed in mammalian expression system assessed as residual binding level at 10 uM by Kinomescan method relative to control"}, "[10]": {"molecular_target": "Serine/threonine-protein kinase MRCK gamma (Homo sapiens) (UniProt Q6DT37)", "assay": "Binding affinity to wild-type human partial length DMPK2 (S46 to S408 residues) expressed in bacterial expression system assessed as residual binding level at 10 uM by Kinomescan method relative to control"}, "[11]": {"molecular_target": "Ephrin type-A receptor 2 (Homo sapiens) (UniProt P29317)", "assay": "Binding affinity to wild-type human partial length EPHA2 (T593 to V891 residues) expressed in bacterial expression system assessed as residual binding level at 10 uM by Kinomescan method relative to control"}, "[12]": {"system": "Receptor-type tyrosine-protein kinase FLT3 (Homo sapiens), P36888 [N841I]", "assay": "Binding affinity to human partial length FLT3 N841I mutant (V592 to Y969 residues) expressed in bacterial expression system assessed as residual binding level at 10 uM by Kinomescan method relative to control"}, "[13]": {"molecular_target": "Serine/threonine-protein kinase STK11 (Homo sapiens) (UniProt Q15831)", "assay": "Binding affinity to wild-type human full length LKB1 (M1 to Q433 residues) expressed in bacterial expression system assessed as residual binding level at 10 uM by Kinomescan method relative to control"}, "[14]": {"molecular_target": "MAP/microtubule affinity-regulating kinase 4 (Homo sapiens) (UniProt Q96L34)", "assay": "Binding affinity to wild-type human partial length MARK4 (K29 to G340 residues) expressed in bacterial expression system assessed as residual binding level at 10 uM by Kinomescan method relative to control"}, "[15]": {"molecular_target": "Dual specificity mitogen-activated protein kinase kinase 4 (Homo sapiens) (UniProt P45985)", "sequence (P45985 whole entry, the tested form may be a part)": "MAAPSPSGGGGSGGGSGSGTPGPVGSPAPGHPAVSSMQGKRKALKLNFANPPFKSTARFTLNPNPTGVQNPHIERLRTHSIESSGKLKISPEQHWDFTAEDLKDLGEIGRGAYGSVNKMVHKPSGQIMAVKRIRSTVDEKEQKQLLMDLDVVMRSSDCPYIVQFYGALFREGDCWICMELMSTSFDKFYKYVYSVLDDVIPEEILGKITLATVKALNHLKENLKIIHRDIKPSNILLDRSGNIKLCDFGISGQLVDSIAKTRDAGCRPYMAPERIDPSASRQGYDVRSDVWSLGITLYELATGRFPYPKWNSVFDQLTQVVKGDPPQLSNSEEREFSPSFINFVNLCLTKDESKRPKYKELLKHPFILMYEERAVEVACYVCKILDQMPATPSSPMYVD", "assay": "Binding affinity to wild-type human partial length MEK4 (S84 to D399 residues) expressed in mammalian expression system assessed as residual binding level at 10 uM by Kinomescan method relative to control"}, "[16]": {"molecular_target": "MAP kinase-interacting serine/threonine-protein kinase 1 (Homo sapiens) (UniProt Q9BUB5)", "sequence (Q9BUB5 whole entry, looked up, the tested form may be a part)": "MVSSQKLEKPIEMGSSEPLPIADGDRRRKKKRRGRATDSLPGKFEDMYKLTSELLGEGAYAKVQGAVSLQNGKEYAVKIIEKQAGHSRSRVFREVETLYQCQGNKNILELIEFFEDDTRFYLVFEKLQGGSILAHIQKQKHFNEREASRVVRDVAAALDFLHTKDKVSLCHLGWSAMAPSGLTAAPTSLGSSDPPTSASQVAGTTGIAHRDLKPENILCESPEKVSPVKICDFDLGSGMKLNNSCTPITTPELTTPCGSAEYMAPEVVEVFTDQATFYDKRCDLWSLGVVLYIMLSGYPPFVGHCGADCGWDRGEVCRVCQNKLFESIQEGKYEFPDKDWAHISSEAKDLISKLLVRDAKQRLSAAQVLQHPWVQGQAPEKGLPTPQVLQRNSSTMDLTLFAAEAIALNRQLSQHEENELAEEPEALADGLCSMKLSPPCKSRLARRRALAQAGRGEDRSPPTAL", "assay": "Binding affinity to wild-type human full length MKNK1 (M1 to L424 residues) expressed in mammalian expression system assessed as residual binding level at 10 uM by Kinomescan method relative to control"}, "[17]": {"molecular_target": "Serine/threonine-protein kinase Nek3 (Homo sapiens) (UniProt P51956)", "assay": "Binding affinity to wild-type human full length NEK3 (M1 to R506 residues) expressed in mammalian expression system assessed as residual binding level at 10 uM by Kinomescan method relative to control"}, "[18]": {"molecular_target": "Phosphatidylinositol 4,5-bisphosphate 3-kinase catalytic subunit gamma isoform (Homo sapiens) (UniProt P48736)", "sequence (P48736 whole entry, looked up, the tested form may be a part, canonical isoform)": "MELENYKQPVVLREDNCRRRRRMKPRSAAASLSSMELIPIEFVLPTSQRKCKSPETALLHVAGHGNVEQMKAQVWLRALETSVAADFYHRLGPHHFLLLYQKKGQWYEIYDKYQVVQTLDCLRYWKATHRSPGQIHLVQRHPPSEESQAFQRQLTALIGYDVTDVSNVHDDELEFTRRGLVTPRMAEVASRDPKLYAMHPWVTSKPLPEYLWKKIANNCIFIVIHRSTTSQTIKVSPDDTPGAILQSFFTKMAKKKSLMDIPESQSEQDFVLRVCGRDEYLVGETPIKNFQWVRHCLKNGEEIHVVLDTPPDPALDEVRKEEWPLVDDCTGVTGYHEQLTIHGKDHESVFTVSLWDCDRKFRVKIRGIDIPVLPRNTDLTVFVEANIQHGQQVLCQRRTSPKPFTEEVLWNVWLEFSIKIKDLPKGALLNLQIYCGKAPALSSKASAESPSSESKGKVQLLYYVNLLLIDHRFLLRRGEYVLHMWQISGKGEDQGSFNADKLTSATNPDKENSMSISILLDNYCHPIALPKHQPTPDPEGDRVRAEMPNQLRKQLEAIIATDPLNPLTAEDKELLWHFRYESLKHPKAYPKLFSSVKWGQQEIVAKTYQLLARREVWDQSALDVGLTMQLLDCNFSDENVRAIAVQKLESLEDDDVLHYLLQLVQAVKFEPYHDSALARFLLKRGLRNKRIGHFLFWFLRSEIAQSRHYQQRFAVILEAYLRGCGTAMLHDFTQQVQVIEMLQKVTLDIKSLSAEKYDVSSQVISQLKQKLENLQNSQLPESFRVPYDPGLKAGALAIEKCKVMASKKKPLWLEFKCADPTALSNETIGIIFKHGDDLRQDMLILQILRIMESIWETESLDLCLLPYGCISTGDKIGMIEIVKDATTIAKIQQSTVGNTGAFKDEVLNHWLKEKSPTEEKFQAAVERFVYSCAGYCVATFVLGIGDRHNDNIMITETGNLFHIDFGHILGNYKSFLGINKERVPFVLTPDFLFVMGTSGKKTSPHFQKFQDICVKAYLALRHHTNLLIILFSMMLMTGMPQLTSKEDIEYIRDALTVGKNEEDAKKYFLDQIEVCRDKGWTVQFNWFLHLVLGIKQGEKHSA", "assay": "Binding affinity to wild-type human partial length PIK3CG (S144 to A1102 residues) expressed in mammalian expression system assessed as residual binding level at 10 uM by Kinomescan method relative to control"}, "[19]": {"molecular_target": "Protein kinase C iota type (Homo sapiens) (UniProt P41743)", "assay": "Binding affinity to wild-type human partial length PRKCI (H215 to V587 residues) expressed in mammalian expression system assessed as residual binding level at 10 uM by Kinomescan method relative to control"}, "[20]": {"molecular_target": "Ribosomal protein S6 kinase alpha-4 (Homo sapiens) (UniProt O75676)", "assay": "Binding affinity to wild-type human partial length N-terminal RPS6KA4 kinase domain 1 expressed in bacterial expression system assessed as residual binding level at 10 uM by Kinomescan method relative to control"}, "[21]": {"molecular_target": "Serine/threonine-protein kinase 33 (Homo sapiens) (UniProt Q9BYT3)", "assay": "Binding affinity to wild-type human full length STK33 (M1 to L514 residues) expressed in bacterial expression system assessed as residual binding level at 10 uM by Kinomescan method relative to control"}, "[22]": {"molecular_target": "Mitogen-activated protein kinase kinase kinase 7 (Homo sapiens) (UniProt O43318)", "sequence (O43318 whole entry, the tested form may be a part)": "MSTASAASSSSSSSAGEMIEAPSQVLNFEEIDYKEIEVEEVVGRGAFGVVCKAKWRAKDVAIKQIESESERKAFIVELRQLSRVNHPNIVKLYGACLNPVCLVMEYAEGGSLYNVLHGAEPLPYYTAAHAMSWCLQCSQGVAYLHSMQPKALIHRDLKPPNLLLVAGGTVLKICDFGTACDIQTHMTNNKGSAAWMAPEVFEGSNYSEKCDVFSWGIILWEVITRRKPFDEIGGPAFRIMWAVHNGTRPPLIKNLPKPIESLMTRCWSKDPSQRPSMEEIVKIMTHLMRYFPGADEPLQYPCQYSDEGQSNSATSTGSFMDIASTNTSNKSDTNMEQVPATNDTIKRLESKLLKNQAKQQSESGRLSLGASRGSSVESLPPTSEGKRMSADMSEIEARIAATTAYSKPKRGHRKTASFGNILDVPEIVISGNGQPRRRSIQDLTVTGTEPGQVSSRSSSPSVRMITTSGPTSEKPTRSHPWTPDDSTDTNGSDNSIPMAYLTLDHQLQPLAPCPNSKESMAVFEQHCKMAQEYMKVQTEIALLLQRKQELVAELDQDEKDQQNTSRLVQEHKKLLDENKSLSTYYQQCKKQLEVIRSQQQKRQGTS", "assay": "Binding affinity to wild-type human partial length TAK1 (M1 to Q303 residues) expressed in mammalian expression system assessed as residual binding level at 10 uM by Kinomescan method relative to control"}, "[23]": {"molecular_target": "Testis-specific serine/threonine-protein kinase 3 (Homo sapiens) (UniProt Q96PN8)", "assay": "Binding affinity to wild-type human full length TSSK3 (M1 to T268 residues) expressed in mammalian expression system assessed as residual binding level at 10 uM by Kinomescan method relative to control"}, "[24]": {"molecular_target": "Wee1-like protein kinase 2 (Homo sapiens) (UniProt P0C1S8)", "sequence (P0C1S8 whole entry, looked up, the tested form may be a part)": "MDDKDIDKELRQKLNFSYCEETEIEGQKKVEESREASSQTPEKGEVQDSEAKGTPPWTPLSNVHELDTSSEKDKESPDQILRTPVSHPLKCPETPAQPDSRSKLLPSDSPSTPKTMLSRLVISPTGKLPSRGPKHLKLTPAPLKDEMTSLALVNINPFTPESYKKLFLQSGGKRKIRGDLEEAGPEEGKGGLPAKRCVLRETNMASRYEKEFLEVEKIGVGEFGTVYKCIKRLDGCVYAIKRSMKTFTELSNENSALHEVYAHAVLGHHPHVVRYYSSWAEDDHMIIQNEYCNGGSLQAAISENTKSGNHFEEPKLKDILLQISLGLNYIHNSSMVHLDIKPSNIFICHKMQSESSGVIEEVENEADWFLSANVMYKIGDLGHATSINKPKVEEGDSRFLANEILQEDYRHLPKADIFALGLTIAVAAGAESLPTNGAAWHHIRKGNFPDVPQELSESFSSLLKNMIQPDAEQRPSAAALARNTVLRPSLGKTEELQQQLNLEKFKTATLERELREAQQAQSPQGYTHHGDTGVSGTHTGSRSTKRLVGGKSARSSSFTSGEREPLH", "assay": "Binding affinity to wild-type human partial length WEE2 (M204 to K492 residues) expressed in bacterial expression system assessed as residual binding level at 10 uM by Kinomescan method relative to control"}, "[25]": {"molecular_target": "Serine/threonine-protein kinase 32C (Homo sapiens) (UniProt Q86UX6)", "sequence (Q86UX6 whole entry, the tested form may be a part)": "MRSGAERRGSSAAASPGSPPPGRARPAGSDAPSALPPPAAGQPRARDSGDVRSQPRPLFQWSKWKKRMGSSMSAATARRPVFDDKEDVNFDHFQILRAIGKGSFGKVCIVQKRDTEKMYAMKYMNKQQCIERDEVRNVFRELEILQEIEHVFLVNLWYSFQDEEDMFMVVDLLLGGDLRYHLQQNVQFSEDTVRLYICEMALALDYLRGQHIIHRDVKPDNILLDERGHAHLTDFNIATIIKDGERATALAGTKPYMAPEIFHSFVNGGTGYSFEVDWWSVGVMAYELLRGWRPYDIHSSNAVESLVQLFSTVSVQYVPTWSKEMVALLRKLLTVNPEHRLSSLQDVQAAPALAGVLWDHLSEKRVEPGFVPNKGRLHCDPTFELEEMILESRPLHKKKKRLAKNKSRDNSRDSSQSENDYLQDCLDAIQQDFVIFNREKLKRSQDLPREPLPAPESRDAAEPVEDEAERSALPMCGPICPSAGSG", "assay": "Binding affinity to wild-type human partial length YANK3 (M68 to G486 residues) expressed in bacterial expression system assessed as residual binding level at 10 uM by Kinomescan method relative to control"}}}
{"smiles": "O=C(Nc1cc(-c2cn(CCNc3c4c(nc5ccccc35)CCCC4)nn2)ccn1)Nc1cccc2c1C1CCCCN1C2=O", "note": "(racemic)", "values": [{"measurement": "IC50", "setting": "[1]", "value": 301, "unit": "nM"}, {"measurement": "Activity", "setting": "[2]", "value": 49, "unit": "%"}, {"measurement": "Activity", "setting": "[3]", "value": 100, "unit": "%"}, {"measurement": "Activity", "setting": "[4]", "value": 5.6, "unit": "%"}, {"measurement": "Activity", "setting": "[5]", "value": 13, "unit": "%"}, {"measurement": "Activity", "setting": "[6]", "value": 39, "unit": "%"}, {"measurement": "Activity", "setting": "[7]", "value": 100, "unit": "%"}, {"measurement": "Activity", "setting": "[8]", "value": 0.3, "unit": "%"}, {"measurement": "Activity", "setting": "[9]", "value": 4.2, "unit": "%"}, {"measurement": "Activity", "setting": "[10]", "value": 100, "unit": "%"}, {"measurement": "Activity", "setting": "[11]", "value": 91, "unit": "%"}, {"measurement": "Activity", "setting": "[12]", "value": 0, "unit": "%"}, {"measurement": "Activity", "setting": "[13]", "value": 36, "unit": "%"}, {"measurement": "Activity", "setting": "[14]", "value": 35, "unit": "%"}, {"measurement": "Activity", "setting": "[15]", "value": 100, "unit": "%"}, {"measurement": "Activity", "setting": "[16]", "value": 100, "unit": "%"}, {"measurement": "Activity", "setting": "[17]", "value": 69, "unit": "%"}, {"measurement": "Activity", "setting": "[18]", "value": 100, "unit": "%"}, {"measurement": "Activity", "setting": "[19]", "value": 100, "unit": "%"}, {"measurement": "Activity", "setting": "[20]", "value": 22, "unit": "%"}, {"measurement": "Activity", "setting": "[21]", "value": 6.7, "unit": "%"}, {"measurement": "Activity", "setting": "[22]", "value": 1.6, "unit": "%"}, {"measurement": "Activity", "setting": "[23]", "value": 100, "unit": "%"}, {"measurement": "Activity", "setting": "[24]", "value": 100, "unit": "%"}, {"measurement": "Activity", "setting": "[25]", "value": 75, "unit": "%"}]}
